According to patent US8278072B1, “Method for synthesis of sialylated products using reversible sialylation” (Health Research, Inc., priority 2007, dated 2012):
Blank lines part the entries; values can stand above or below the compound they belong to.

How the values were obtained:
Format in all cases: biochemical
ST3Gal-II [1] = biological target: T1, ST3Gal-II (Rattus norvegicus, UniProt Q11205); experiment: Effect of O-glycans with sialyl or sulfo substituents on reverse sialylation from [9-3H] sialyl fetuin; details: 6.0 mM compound, [9-3H] sialyl fetuin donor, 20 mM 5′-CMP, 20 h
T1 construct: purchased Calbiochem
T1 sequence (Q11205 1-350): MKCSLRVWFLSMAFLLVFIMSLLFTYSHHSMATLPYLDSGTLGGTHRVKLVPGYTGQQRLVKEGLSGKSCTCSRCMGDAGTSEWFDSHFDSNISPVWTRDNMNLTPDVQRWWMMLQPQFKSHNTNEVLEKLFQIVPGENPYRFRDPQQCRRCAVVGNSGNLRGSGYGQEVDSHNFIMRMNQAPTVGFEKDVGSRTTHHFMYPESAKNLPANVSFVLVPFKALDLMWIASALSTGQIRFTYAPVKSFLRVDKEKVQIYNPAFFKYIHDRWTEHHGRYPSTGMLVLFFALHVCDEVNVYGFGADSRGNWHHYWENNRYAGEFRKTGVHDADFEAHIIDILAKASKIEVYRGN
Experimental: FIG. 6. Effect of sialyl or sulfo substituents in O-glycan chain on the reverse sialylation by ST3Gal-II. Incubation mixtures (600 μl) contained [9-^3H] sialyl fetuin (5 mg), 200 mM NaCa Codylate pH 6.0, 20 mM 5′-CMP, […] ST3Gal-II and the following: a. 6.0 mM NeuAcα2,3Galβ1,4GlcNAcβ1,6 (Galβ1,3)GalNAcα-O-Bn, b. 6.0 mM 3-O-SulfoGalβ1,4GlcNAcβ1,6(Galβ1,3)GalNAcα-O-Bn or c. 6.0 mM Galβ1,6GlcNAcβ1,6(3-O-Sulphoβ1,3Gal)GalNAcα-O-Bn along with 50 mU ST3Gal-III. Products were fractionated using Biogel P2 column after 20 h at 37° C. Unused [9-^3H] sialyl fetuin (peak 1) appears prior to [9-^3H]Sialyl product from acceptor (peak 2) and CMP-[9-^3H]NeuAc (peak 3). Product identities were verified using LC-MS as indicated by molecular weights noted in the panels.
For these studies, [9-^3H] sialyl fetuin was prepared by the action of ST3Gal-II on fetuin in the presence of CMP-[9-^3H]NeuAc. Radioactivity incorporation into the O-glycan chain of the glycoprotein was confirmed by treating the labeled molecule with alkaline borohyrdride (1MNaBH4 in 0.1MNaOH at 45° C. for 24 hours) and detecting the released radioactivity. During these studies, sialyl fetuin was incubated with 5′-CMP, one of the above mentioned compounds, and sialyltransferase for 20 hours, and the product formed was eluted using a Biogel P2 column. […] Consequently no radioactivity was associated with the acceptor. […] The use of distinct compounds to differentially alter reverse and forward sialylation function further supports the concept that ST3Gal-II may have more than one catalytic function.

ST3Gal-II [2] = biological target: T1, ST3Gal-II; experiment: Reverse sialylation equilibrium constant (Keq) and 5′-CMP dose dependence; details: for Keq (dimensionless units), reverse sialylation equilibrium constant: acceptor 5′-CMP
Experimental: FIG. 2. Equilibrium constant. a. Reversible sialyltransferase activity at increasing concentration of 5′-CMP. 0.15 mM of donor [9-^3H]NeuAcα2,3Galβ1,3(4-FGlcNAcβ1,6)GalNAcα-O-Bn [9-^3H[2]] was incubated with varying concentrations of 5′-CMP and 0.15 mU ST3Gal-II under conditions described in FIG. 1 for 2 hours. The consumption of the [9-^3H]NeuAc benzyl glycoside donor was measured by subjecting the incubation mixture to Sep-Pak C18 fractionation, which binds the donor and not CMP-[9-^3H]NeuAc. The reaction proceeded to ½ the maximum extent at 80 μM 5′-CMP. b. Equilibrium constant Keq (=0.35) calculated for data in panel a. c. Varying concentrations of 5′-CMP was sialylated with ST3Gal-II (2.0 mU) using either 0.15 mM (panel c) or 1.5 mM (not shown) sialyl donor [9-^3H]NeuAcα2,3Galβ1,3GalNAcβ1,3Galα-O-Me [9-^3H[3]] for 4 hours. The product CMP-[9-^3H]NeuAc and the unused [9-^3H[3]] were separated and quantitated by Dowex-1-Formate method. d. Equilibrium constant, Keq=98.9. Diamonds denote data from 1.5 mM runs while data from 0.15 mM runs are depicted by squares.
a) Biogel P2 chromatography: A Biogel P2 column (Fine Mesh; 1.0×116.0 cm) was used with 0.1 M pyridine acetate (pH5.4) as the eluent at room temperature. […] Fractions of 1.0 ml were collected. The bound material was then eluted with 0.5M GlcNAc or 0.2M Gal in the same buffer. […] Calculation of equilibrium constant, Keq: Equilibrium constant was calculated for selected reversible bimolecular reactions that are denoted by:
[formula] Here, [9-^3H]D* denotes the radiolabeled donor and D′ is the donor after removal of sialic acid. Similarly, A and [9-^3H]A* denote the acceptor before and after incorporation of NeuAc. In each run, unreacted [9-^3H]D* and product [9-^3H] A* are measured using radioactivity measurements. The equilibrium constant (Keq=kreverse/kforward, dimensionless units) are then determined using the following equation, where terms in square brackets denote concentrations:
[formula] [D0] and [A0] are initial donor and acceptor concentrations. A plot of [D*]/([D0]−[D*]) versus [A*]/([A0]−[A*]) yields Keq from slope data. Keq<1 implies that the forward reaction is favored and the reaction proceeds to the right side to form [9-^3H]A* efficiently. Liquid Chromatography Coupled with Tandem Mass Spectrometry (LC/MS/MS)
Similar results were observed upon increasing concentrations of 5′-CMP when [9-^3H]NeuAcα2,3Galβ1,3(4-FGlcNAcβ1,6) GalNAcα-O-Bn [9-^3H[2]] was donor (FIG. 2a, b). The concentration of 5′-CMP that mediated half-maximal transfer of [9-^3H]NeuAc was 80 μM. The bimolecular equilibrium constant (Keq) for this reaction was 0.35 (dimensionless units, Table I). Indeed, the Keq varied depending on the donor and it was 98.9 when the donor was based on the globo glycolipid, [9-^3H]NeuAcα2,3Galβ1,3GalNAcβ1,3 Gala-O-Me [[9-^3H] [3]] (FIG. 2c, d). Upon comparing and [3], it is apparent that reverse sialylation proceeds more effectively in the case of [2]. To further confirm the above estimates of Keq for core-2 based structures, we also calculated this parameter for our previously published data where [9-^3H]CMP-NeuAc was donor and mucin core-2 tetrasaccharide Galβ1,4GlcNAcβ1,6(Galβ1,3)GalNAcα-O-Bn was acceptor. In this case, Keq measured with respect to the rate of mucin core-2 sialylation was 5.55 (data not shown), which translates to a reverse sialylation Keq of 0.18.

ST3Gal-II [3] = biological target: T1, ST3Gal-II; experiment: Serial transfer of sialic acid from donor via 5′-CMP to acceptors (scheme-II)
Experimental: FIG. 3. Serial transfer of sialic acid using scheme-II was followed at increasing concentrations of acceptor D-Fucβ1,3GalNAcα-O-Bn. The donor used was either: i) 0.15 mM [9-^3H]CMP-NeuAc; or, ii) 0.15 mM [9-^3H]NeuAcα2,3Galβ1,3(4-FGlcNAcβ1,6)GalNAcα-O-Bn [9-^3H [2]] in the presence of 2.0 mM 5′-CMP, or iii) [9-^3H]NeuAcα2,3Galβ1,3(6-O-SulfoGlcNAcβ1,6)GalNAcα-O—Al [[9-^3H] [4]] in the presence of 2.0 mM 5′-CMP. In runs where [9-^3H [2]] was donor since both and [2] bind C18 cartridges, control runs were performed in the absence of D-Fucβ1,3GalNAcα-O-Bn to estimate the amount of [9-^3H]CMP-NeuAc formed under the experimental conditions. 80-85% of the radioactivity was transferred to CMP-NeuAc in these runs. The amount of CMP-NeuAc remaining in runs with was then subtracted from CMP-NeuAc radioactivity in the control run to determine the amount of sialylated. To complement this run, studies were also performed with [[9-^3H] […] In these runs, the amount of sialylated was determined by measuring radioactivity retained in the C18-cartridge. a. Equilibrium constant was 5.55 when CMP-[9-^3H]NeuAc was donor. b. ˜10-fold lower acceptor concentration was required for similar extents of reaction when CMP-[9-^3H]NeuAc was donor, compared to core-2 based donors and [4].
We tested the possibility that CMP-NeuAc formed above may be available for transfer to other acceptors using ST3Gal-II (scheme-II, FIG. 3). For this, three radiolabeled donors were prepared using methods described above: two were based on the mucin Core-2 structure ([[9-^3H] [1]] and [9-^3H]NeuAcα2,3Galβ1,3(6-O-SulfoGlcNAcβ1,6)GalNAcα-O—Al [[9-^3H] [4]]) while the third was based on the Globo glycolipid ([9-^3H] [3]). The transfer of [9-^3H]NeuAc from these sialylated donors to various T-hapten (Galβ1,3GalNAcα) and mucin core2-based glycoside acceptors in the presence of 5′-CMP and ST3Gal-II was assessed (Table III). All three […] of ST3Gal-II ([1], [3] and [4]) allowed formation of CMP-[9-^3H]NeuAc, and a diverse array of products.
The transfer of [9-^3H]NeuAc from [[9-^3H][1]] to D-Fucβ1,3GalNAcα-O-Bn in the presence of 5′-CMP and ST3Gal-II increased linearly in the first two hours and it reached saturation at 4 hours (FIG. 12), and thus the data in Table III (4 hours time point) represent equilibrium conditions. […] Further, diverse sialylated products can be formed using the same synthetic sialylated donor.
In order to compare the efficiency of individual reactions of scheme II, independent runs were performed where either 0.15 mM [9-^3H]CMP-NeuAc, 0.15 mM [9-^3H] [2] or 0.15 mM [9-^3H] [4] was the donor, and [5] was the acceptor (FIG. 3). 2 mM 5′-CMP was added in runs with core-2 donors and [4], and thus reverse sialylation of these molecules was feasible. Keq for transfer of sialic acid from CMP-NeuAc to [5] was 5.55 (FIG. 3a). […] (˜6 mM) or [9-^3H[4]] (˜6 mM). Thus, while the two-step mechanism results in lower conversion than CMP-NeuAc alone, the transfer of NeuAc still takes place at an appreciable rate.

Compound: CC(=O)N[C@H]1[C@H](OC[C@H]2O[C@H](OCc3ccccc3)[C@H](NC(C)=O)[C@@H](O[C@@H]3O[C@H](CO)[C@H](O)[C@H](O)[C@H]3O)[C@H]2O)O[C@H](CO)[C@@H](O[C@@H]2O[C@H](CO)[C@H](O)[C@H](OS(=O)(=O)O)[C@H]2O)[C@@H]1O [3-O-SulfoGalβ1,4GlcNAcβ1,6(Galβ1,3)GalNAcα-O-Bn]
Effect on reverse sialylation (CMP-NeuAc formation and product formation) (ST3Gal-II [1]): inhibits formation of the intermediate CMP-NeuAc

Compound: CC(=O)N[C@H]1[C@H](OC[C@H]2O[C@H](OCc3ccccc3)[C@H](NC(C)=O)[C@@H](O[C@@H]3O[C@H](CO)[C@H](O)[C@H](OS(=O)(=O)O)[C@H]3O)[C@H]2O)O[C@H](CO)[C@@H](O[C@@H]2O[C@H](CO)[C@H](O)[C@H](O)[C@H]2O)[C@@H]1O [Galβ1,4GlcNAcβ1,6(3-O-SulfoGalβ1,3)GalNAcα-O-Bn]
Effect on reverse sialylation (CMP-NeuAc formation and product formation) (ST3Gal-II [1]): permits both the formation of CMP-NeuAc from 5′-CMP

Keq measured with respect to the rate of mucin core-2 sialylation (ST3Gal-II [2]; [9-3H]CMP-NeuAc donor, mucin core-2 tetrasaccharide acceptor, calculated for previously published data): 5.55 | Keq (dimensionless units), reverse sialylation equilibrium constant (ST3Gal-II [2]; translated from Keq 5.55 of mucin core-2 sialylation, previously published data): 0.18 | Incorporation of [9-3H]NeuAc from donor [1], percent of the CPM incorporated into [5] (ST3Gal-II [3]; acceptor 2.5 mM, 150 μM donor [1], 1 mM 5′-CMP, 4 hours): 20.5% | Incorporation of [9-3H]NeuAc from donor [4], percent of the CPM incorporated into [5] (ST3Gal-II [3]; acceptor 2.5 mM, 150 μM donor [4], 1 mM 5′-CMP, 4 hours): 8.4%
Compound: CC(=O)N[C@H]1[C@H](OC[C@H]2O[C@H](OCc3ccccc3)[C@H](NC(C)=O)[C@@H](O[C@@H]3O[C@H](CO)[C@H](O)[C@H](O)[C@H]3O)[C@H]2O)O[C@H](CO)[C@@H](O[C@@H]2O[C@H](CO)[C@H](O)[C@H](O)[C@H]2O)[C@@H]1O [[10], Galβ1,4GlcNAcβ1,6(Galβ1,3)GalNAcα-O-Bn]

Compound: NeuAcα2,3Galβ1,4GlcNAcβ1,6(Galβ1,3)GalNAcα-O-Bn
Effect on reverse sialylation (CMP-NeuAc formation and product formation) (ST3Gal-II [1]): prevents product formation without inhibiting CMP-NeuAc formation

Keq (dimensionless units), reverse sialylation equilibrium constant (ST3Gal-II [2]; sialylated donor): 0.35 | amount of acceptor [5] required for comparable transfer (ST3Gal-II [3]; 0.15 mM donor, 2 mM 5′-CMP with core-2 donors): ~6 mM | radioactivity transferred to CMP-NeuAc (ST3Gal-II [3]; control runs without acceptor [5], 2.0 mM 5′-CMP): 80-85%
Compound: [9-^3H]NeuAcα2,3Galβ1,3(4-FGlcNAcβ1,6)GalNAcα-O-Bn [[2]]
